Earlier results, collected in patent publication US20070191933A1, “Reduction of restenosis” (priority 2005, published 2007).

Test system: circulating T-cells
Conditions: FIG. 1

For alemtuzumab [Campath], which “time to full recovery of T-cells” value (after a single dose) is on record?
The value was no less than 3 months.

And the “killing of circulating T-cells” value (single dose)?
Its value is “kill all circulating T-cells”.
